Experimental data from US20190358181A1, “METHODS FOR AUTISM SPECTRUM DISORDER PHARMACOTHERAPY” (priority 2017, published 2019).

System: 610 metabolites from 63 biochemical pathways
Test: Targeted broad-spectrum plasma metabolomic analysis (LC-MS/MS), paired pre-infusion vs post-infusion (2-days and 6-weeks)
Format: in vivo, human
Details: for Linear Ratio / VIP Score / Z Abs / Z Score: plasma
Protocol: Targeted, broad-spectrum, plasma metabolomic analysis of 610 metabolites from 63 biochemical pathways was performed by high performance liquid chromatography and tandem mass spectrometry (LC-MS/MS) on the samples collected from patients in Example 1. Venous blood was collected between the hours of 8 am and 5 pm, at least 3 hours after the last meal, into lithium-heparin vacutainer tubes (BD #367884). Plasma was separated by centrifugation at 900 g×10 minutes at room temperature within one hour of collection. The resulting fresh lithium-heparin plasma was transferred to labeled 1.2 ml or 2.0 ml externally threaded cryotubes with a minimum headspace air gap for storage at −80° C. for analysis. Samples were analyzed on an AB SCIEX QTRAP 5500 triple quadrupole mass spectrometer equipped with a Turbo V electrospray ionization (ESI) source, Shimadzu LC-20A UHPLC system, and a PAL CTC autosampler. Typically, 90 μl of plasma was thawed on ice and transferred to a 1.7 ml Eppendorf tube. Five (5.0) μl of a cocktail containing 25-35 commercial stable isotope internal standards, and 5.0 μl of 57 stable isotope internal standards that were custom-synthesized in E. coli NCM3722, Caenorhabditis elegans N2, and Komagataella phaffii (ATCC 76273; formerly known as Pichia pastoris) by metabolic labeling with 13C-glucose and 13C-bicarbonate, were added, mixed, and incubated for 10 min at 20° C. to permit small molecules and vitamins in the internal standards to associate with plasma binding proteins. Macromolecules (protein, DNA, RNA, glycans, etc.) were precipitated by extraction with 4 volumes (400 μl) of cold (−20° C.), acetonitrile:methanol (50:50) (LCMS grade, Cat #LC015-2.5 and GC230-4, Burdick & Jackson, Honeywell), vortexed vigorously, and incubated on crushed ice for 10 min, then removed by centrifugation at 16,000 g×10 min at 4° C. The supernatants containing the extracted metabolites and internal standards in the resulting 40:40:20 solvent mix of acetonitrile:methanol:water were transferred to labeled cryotubes and stored at −80° C. for LCMS/MS analysis.
LC-MS/MS analysis was performed by scheduled multiple reaction monitoring (sMRM) under Analyst v1.6.2 software control in both negative and positive mode with rapid polarity switching (50 ms). Nitrogen was used for curtain gas (set to 30), collision gas (set to high), ion source gas 1 and 2 (set to 35). The source temperature was 500° C. Spray voltage was set to −4500 V in negative mode and 5500 V in positive mode. The values for Q1 and Q3 mass-to-charge ratios (m/z), declustering potential (DP), entrance potential (EP), collision energy (CE), and collision cell exit potential (CXP) were determined and optimized for each MRM for each metabolite. Ten microliters of extract was injected by PAL CTC autosampler via a 10 μl stainless steel loop into a 250 mm×2.0 mm, 4 μm polymer based NH2 HPLC column (Asahipak NH2P-40 2E, Showa Denko America, Inc., NY) held at 25° C. for chromatographic separation. The mobile phase was solvent A: 95% water with 20 mM (NH4)2CO3 (Sigma, Fluka Cat #74415-250G-F), 5% acetonitrile, and 38 mM NH4OH (Sigma, Fluka Cat #17837-100ML), final pH 9.75; solvent B: 100% acetonitrile. Separation was achieved using the following gradient: 0-3.5 min: 95% B, 3.6-8 min: 85% B, 8.1-13 min: 75% B, 13.5-35 min: 0% B, 36-46 min: 95% B, 46.1 min: end. The flow rate was 200 μl/min. Pump pressures ranged from 920-2600 psi over the course of the gradient. All the samples were kept at 4° C. during analysis. The chromatographic peaks were identified using MultiQuant (v3.0, Sciex), confirmed by manual inspection, and the peak areas integrated. […]

[1] = Fatty Acid Oxidation and Synthesis, 6-weeks
[2] = GABA, Glutamate, Arginine, Ornithine, Proline, 6-weeks
[3] = GABA, Glutamate, Arginine, Ornithine, 2-days
[4] = Gamma-Glutamyl and other Dipeptides, 2-days
[5] = Gamma-Glutamyl and other Dipeptides, 6-weeks
[6] = Gamma-glutamyl-Alanine, 6-weeks
[7] = Glycolysis and Gluconeogenesis Metabolism, 2-days
[8] = Glycolysis and Gluconeogenesis Metabolism, 6-weeks
[9] = Glycosphingolipid Metabolism, 2-days
[10] = Hexose Disaccharide Pool, 6-weeks
[11] = Histidine, Histamine, Carnosine Metabolism, 2-days
[12] = Histidine, Histamine, Carnosine Metabolism, 6-weeks

Cc1ccc(C(=O)Nc2ccc(S(=O)(=O)O)c3cc(S(=O)(=O)O)cc(S(=O)(=O)O)c23)cc1NC(=O)c1cccc(NC(=O)Nc2cccc(C(=O)Nc3cc(C(=O)Nc4ccc(S(=O)(=O)O)c5cc(S(=O)(=O)O)cc(S(=O)(=O)O)c45)ccc3C)c2)c1 [Suramin, suramin]
Increased [1]: 0 | Observed Hits in the Top 48 Metabolites [1]: 3 | Decreased [2]: 0 | Fold Enrichment (Obs/Exp) [2]: 3.0 | Fraction of Impact (VIP Score) Explained (% of 94.6) [2]: 4% | Impact (Sum VIP Score) [2]: 3.9 | Increased [2]: 2 | Observed Hits in the Top 48 Metabolites [2]: 2 | Decreased [3]: 0 | Fold Enrichment (Obs/Exp) [3]: 3.5 | Fraction of Impact (VIP Score) Explained (% of 119.7) [3]: 4% | Impact (Sum VIP Score) [3]: 4.7 | Increased [3]: 3 | Observed Hits in the Top 61 Metabolites [3]: 3 | Decreased [4]: 0 | Fold Enrichment (Obs/Exp) [4]: 7.1 | Fraction of Impact (VIP Score) Explained (% of 119.7) [4]: 3% | Impact (Sum VIP Score) [4]: 3.8 | Increased [4]: 2 | Observed Hits in the Top 61 Metabolites [4]: 2 | Decreased [5]: 0 | Fold Enrichment (Obs/Exp) [5]: 4.5 | Fraction of Impact (VIP Score) Explained (% of 94.6) [5]: 2% | Impact (Sum VIP Score) [5]: 2.4 | Increased [5]: 1 | Observed Hits in the Top 48 Metabolites [5]: 1 | Linear Ratio [6]: 1.644 | VIP Score [6]: 2.353 | Z Abs [6]: 1.725 | Z Score [6]: 1.725 | Linear Ratio (Glycerol 3-phosphate, 6-weeks): 1.294 | VIP Score (Glycerol 3-phosphate, 6-weeks): 2.081 | Z Abs (Glycerol 3-phosphate, 6-weeks): 1.731 | Z Score (Glycerol 3-phosphate, 6-weeks): 1.731 | Linear Ratio (Glycine, 6-weeks): 1.392 | VIP Score (Glycine, 6-weeks): 2.523 | Z Abs (Glycine, 6-weeks): 1.891 | Z Score (Glycine, 6-weeks): 1.891 | Linear Ratio (Glycocholic acid, 6-weeks): 2.270 | VIP Score (Glycocholic acid, 6-weeks): 1.956 | Z Abs (Glycocholic acid, 6-weeks): 1.945 | Z Score (Glycocholic acid, 6-weeks): 1.945 | Decreased [7]: 0 | Fold Enrichment (Obs/Exp) [7]: 2.0 | Fraction of Impact (VIP Score) Explained (% of 119.7) [7]: 4% | Impact (Sum VIP Score) [7]: 4.3 | Increased [7]: 2 | Observed Hits in the Top 61 Metabolites [7]: 2 | Decreased [8]: 0 | Fold Enrichment (Obs/Exp) [8]: 1.3 | Fraction of Impact (VIP Score) Explained (% of 94.6) [8]: 2% | Impact (Sum VIP Score) [8]: 2.1 | Increased [8]: 1 | Observed Hits in the Top 48 Metabolites [8]: 1 | Decreased [9]: 0 | Fold Enrichment (Obs/Exp) [9]: 0.6 | Fraction of Impact (VIP Score) Explained (% of 119.7) [9]: 2% | Impact (Sum VIP Score) [9]: 2.1 | Increased [9]: 1 | Observed Hits in the Top 61 Metabolites [9]: 1 | Linear Ratio (Guanidinoacetic acid, 6-weeks): 1.217 | VIP Score (Guanidinoacetic acid, 6-weeks): 1.644 | Z Abs (Guanidinoacetic acid, 6-weeks): 1.254 | Z Score (Guanidinoacetic acid, 6-weeks): 1.254 | Linear Ratio [10]: 2.121 | VIP Score [10]: 1.911 | Z Abs [10]: 1.220 | Z Score [10]: 1.220 | Linear Ratio (Hippuric acid, 6-weeks): 1.602 | VIP Score (Hippuric acid, 6-weeks): 1.559 | Z Abs (Hippuric acid, 6-weeks): 0.881 | Z Score (Hippuric acid, 6-weeks): 0.881 | Linear Ratio (Histamine, 6-weeks): 1.219 | VIP Score (Histamine, 6-weeks): 2.279 | Z Abs (Histamine, 6-weeks): 1.312 | Z Score (Histamine, 6-weeks): 1.312 | Decreased [11]: 0 | Fold Enrichment (Obs/Exp) [11]: 1.8 | Fraction of Impact (VIP Score) Explained (% of 119.7) [11]: 2% | Impact (Sum VIP Score) [11]: 1.8 | Increased [11]: 1 | Observed Hits in the Top 61 Metabolites [11]: 1 | Decreased [12]: 0 | Fold Enrichment (Obs/Exp) [12]: 2.2 | Fraction of Impact (VIP Score) Explained (% of 94.6) [12]: 2% | Impact (Sum VIP Score) [12]: 2.3 | Increased [12]: 1 | Observed Hits in the Top 48 Metabolites [12]: 1 | Linear Ratio (Hydroxyproline, 6-weeks): 1.210 | VIP Score (Hydroxyproline, 6-weeks): 2.039 | Z Abs (Hydroxyproline, 6-weeks): 3.005 | Z Score (Hydroxyproline, 6-weeks): 3.005 | Decreased (Krebs Cycle, 2-days): 0
